Test results taken from paper PMC11851449, “Blm10-Based Compounds Add to the Knowledge of How Allosteric Modulators Influence Human 20S Proteasome” (ACS Chemical Biology, 2025).

Legend:
human 20S proteasome [1] = system: T1, human 20S proteasome; assay: ChT-L peptidase activity of latent h20S probed with Suc-LLVY-AMC; assay type: biochemical; conditions: 10 μM bortezomib, Suc-LLVY-AMC 100 μM; activators could not overcome the inhibition
T1 construct: 20S proteasome was isolated from human erythrocytes; from tissue; host or cells: human erythrocytes
Method: (§1) The capacity of influencing the human 20S proteasome was examined using the latent enzyme isolated from human erythrocytes. Boc-LRR-AMC, Z-LLE-AMC, and Suc-LLVY-AMC fluorogenic substrates (Enzo Life Sciences Inc.) were used for assessment of the trypsin-, caspase-, and chymotrypsin-like activities, respectively. As an additional probe, we utilized a homemade FRET-type substrate DabEDS (Lys(Dabcyl)-[…]EDANS)-Gly[36]). Stock solutions of the substrates and modulators were prepared in dimethyl sulfoxide (DMSO). […] The activity assays were performed in a 96-well plate format in 50 mM Tris/HCl, pH 8.0. The CP was used at a final concentration of 0.002 mg mL^–1 (2.8 nM). The final concentrations of LLVY, LRR, and LLE substrates were 100 μM and DabEDS 15 μM. The concentration of reagents in the tests with inhibitors was as follows: 10 μM bortezomib (tebu-bio), 50 μM leupeptin (Roth), and 10 μM activators. The release of the aminomethylcoumarin (AMC) reporter group was followed by monitoring the fluorescence emission at 460 nm (λex was 380 nm). DabEDS hydrolysis was detected by measuring the emission at 493 nm, while the excitation wavelength was set at 335 nm. Fluorescence measurements were carried out using an Infinite M200 Pro plate reader (Tecan), every 2 min for up to 60 min at 37 °C. All activity assays were performed in at least three independent replicates.

human 20S proteasome [2] = system: T1, human 20S proteasome; assay: C-L peptidase activity of latent h20S probed with Z-LLE-AMC; assay type: biochemical; conditions: 10 μM bortezomib
Method: as §1

With `CC(C)C[C@H](NC(=O)[C@H](Cc1ccccc1)NC(=O)c1cnccn1)B(O)O` [bortezomib] the “inhibition of h20S ChT-L activity (in words)” value (human 20S proteasome [1]) was “complete loss of proteasome activity” and the “inhibition of h20S C-L activity (in words)” value (human 20S proteasome [2]) was “completely blocked the activity of the ChT-L and C-L”.
